# Data taken from ChEMBL document CHEMBL1909046, “DrugMatrix in vitro pharmacology data”.
# Assays:
# [1] = target: T1, C-X-C chemokine receptor type 1 (Homo sapiens, UniProt P25024); also: in other assays of this panel Not Active means under 50% inhibition at 10 µM
# T1 sequence (P25024 whole entry): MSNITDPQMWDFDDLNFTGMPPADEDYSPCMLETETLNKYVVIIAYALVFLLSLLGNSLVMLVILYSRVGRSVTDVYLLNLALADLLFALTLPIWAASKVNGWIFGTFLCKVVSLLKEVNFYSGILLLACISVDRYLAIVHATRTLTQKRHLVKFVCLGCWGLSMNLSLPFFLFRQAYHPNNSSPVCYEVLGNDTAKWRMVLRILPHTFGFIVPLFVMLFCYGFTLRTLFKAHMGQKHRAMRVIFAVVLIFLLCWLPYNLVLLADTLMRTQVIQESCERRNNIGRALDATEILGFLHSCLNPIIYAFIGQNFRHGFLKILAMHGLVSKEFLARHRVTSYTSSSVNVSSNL
# Adenosine receptor A1 = target: T2, Adenosine receptor A1 (Homo sapiens, UniProt P30542); assay type: cell membranes, CHO, Membrane; settings: cho;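 also: radioligand binding assay at the adenosine A1 receptor, with DPCPX serving as the labelled ligand; in other assays of this panel Not Active means under 50% inhibition at 10 µM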
# T2 sequence (P30542 whole entry): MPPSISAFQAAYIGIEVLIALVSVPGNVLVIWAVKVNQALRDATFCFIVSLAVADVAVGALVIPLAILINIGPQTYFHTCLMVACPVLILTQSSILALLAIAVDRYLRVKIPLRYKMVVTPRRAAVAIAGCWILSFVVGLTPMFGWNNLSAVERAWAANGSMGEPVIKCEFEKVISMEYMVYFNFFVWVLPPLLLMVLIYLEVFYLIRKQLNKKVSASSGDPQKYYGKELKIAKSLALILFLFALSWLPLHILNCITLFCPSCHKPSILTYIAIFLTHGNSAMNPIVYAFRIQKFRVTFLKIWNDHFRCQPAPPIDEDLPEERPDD
# Mu-type opioid receptor = Mu-type opioid receptor (Homo sapiens, UniProt P35372); test: DRUGMATRIX: Opiate mu (OP3, MOP) radioligand binding (ligand: [3H] Diprenorphine); assay type: cell membranes, CHO-K1, Membrane; settings: cho-k1; Not Active = under 50% inhibition at 10 µM
# Mu-type opioid receptor, sequence (P35372 whole entry): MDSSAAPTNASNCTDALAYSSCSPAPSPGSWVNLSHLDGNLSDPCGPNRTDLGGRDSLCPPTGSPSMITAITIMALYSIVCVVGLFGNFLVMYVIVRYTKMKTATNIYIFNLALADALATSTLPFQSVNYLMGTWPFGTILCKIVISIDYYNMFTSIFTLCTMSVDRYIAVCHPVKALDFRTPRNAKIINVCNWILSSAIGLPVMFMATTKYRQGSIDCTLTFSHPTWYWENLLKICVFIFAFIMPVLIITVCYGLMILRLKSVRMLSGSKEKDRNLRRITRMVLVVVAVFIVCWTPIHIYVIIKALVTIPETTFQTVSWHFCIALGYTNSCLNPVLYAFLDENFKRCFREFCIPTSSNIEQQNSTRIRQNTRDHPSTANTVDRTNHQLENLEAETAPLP
# Cytochrome P450 2A6 = target: T3, Cytochrome P450 2A6 (Homo sapiens, UniProt P11509); settings: bti-tn-5b1-4; also: in other assays of this panel Not Active means under 50% inhibition at 10 µM
# T3 sequence (P11509 whole entry): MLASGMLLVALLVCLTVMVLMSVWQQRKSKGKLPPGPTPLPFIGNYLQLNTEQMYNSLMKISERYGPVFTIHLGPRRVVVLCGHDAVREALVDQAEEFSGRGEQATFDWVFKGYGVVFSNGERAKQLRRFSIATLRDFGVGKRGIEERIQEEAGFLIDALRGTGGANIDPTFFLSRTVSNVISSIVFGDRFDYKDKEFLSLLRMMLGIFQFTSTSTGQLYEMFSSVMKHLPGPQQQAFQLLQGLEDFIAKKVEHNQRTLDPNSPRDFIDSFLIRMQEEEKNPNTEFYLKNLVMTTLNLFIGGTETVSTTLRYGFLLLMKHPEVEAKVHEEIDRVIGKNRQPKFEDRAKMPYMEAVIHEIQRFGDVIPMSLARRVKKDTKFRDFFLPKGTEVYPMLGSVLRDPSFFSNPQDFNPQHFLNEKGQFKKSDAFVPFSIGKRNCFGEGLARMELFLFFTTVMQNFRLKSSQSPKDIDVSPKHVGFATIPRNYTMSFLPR
# Caspase-1 = target: T4, Caspase-1 (Homo sapiens, UniProt P29466); parameters: species or system Escherichia coli;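 also: Caspase-1 enzyme inhibition assay with a peptide substrate; in other assays of this panel Not Active means under 50% inhibition at 10 µM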
# T4 sequence (P29466 whole entry): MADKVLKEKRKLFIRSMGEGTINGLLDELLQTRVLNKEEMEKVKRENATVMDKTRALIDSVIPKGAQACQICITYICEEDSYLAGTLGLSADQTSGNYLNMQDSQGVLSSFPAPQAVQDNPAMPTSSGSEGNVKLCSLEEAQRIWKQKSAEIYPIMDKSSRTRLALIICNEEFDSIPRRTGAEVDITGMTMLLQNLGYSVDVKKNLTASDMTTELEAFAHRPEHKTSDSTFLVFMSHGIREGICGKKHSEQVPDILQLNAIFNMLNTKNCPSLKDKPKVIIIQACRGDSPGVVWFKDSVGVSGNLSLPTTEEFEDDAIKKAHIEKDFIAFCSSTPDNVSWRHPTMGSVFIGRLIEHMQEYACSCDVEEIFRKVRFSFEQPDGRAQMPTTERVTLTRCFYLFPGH
# [2] = target: T5, Alpha-2C adrenergic receptor (Homo sapiens, UniProt P18825); test: DRUGMATRIX: Adrenergic Alpha-2C radioligand binding (ligand: [3H] MK-912); assay type: cell membranes, Sf9, Membrane; settings: for Ki: read-out: Ki
# T5 sequence (P18825 whole entry): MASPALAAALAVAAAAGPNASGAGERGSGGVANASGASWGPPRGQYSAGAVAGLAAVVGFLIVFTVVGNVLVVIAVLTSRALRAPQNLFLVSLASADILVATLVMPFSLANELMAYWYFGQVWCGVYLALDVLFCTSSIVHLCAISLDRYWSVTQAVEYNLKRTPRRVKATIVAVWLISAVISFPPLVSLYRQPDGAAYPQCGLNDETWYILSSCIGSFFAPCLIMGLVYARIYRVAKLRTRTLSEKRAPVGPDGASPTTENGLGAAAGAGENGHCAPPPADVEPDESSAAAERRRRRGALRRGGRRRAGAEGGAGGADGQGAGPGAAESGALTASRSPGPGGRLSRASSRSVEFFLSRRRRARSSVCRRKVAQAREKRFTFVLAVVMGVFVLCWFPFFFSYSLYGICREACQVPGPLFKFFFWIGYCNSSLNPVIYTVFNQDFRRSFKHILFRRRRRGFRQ
# D(3) dopamine receptor = D(3) dopamine receptor (Homo sapiens, UniProt P35462); test: DRUGMATRIX: Dopamine D3 radioligand binding (ligand: [3H] Spiperone); assay type: cell membranes, CHO, Membrane; settings: for Ki: read-out: Ki
# D(3) dopamine receptor, sequence (P35462 whole entry): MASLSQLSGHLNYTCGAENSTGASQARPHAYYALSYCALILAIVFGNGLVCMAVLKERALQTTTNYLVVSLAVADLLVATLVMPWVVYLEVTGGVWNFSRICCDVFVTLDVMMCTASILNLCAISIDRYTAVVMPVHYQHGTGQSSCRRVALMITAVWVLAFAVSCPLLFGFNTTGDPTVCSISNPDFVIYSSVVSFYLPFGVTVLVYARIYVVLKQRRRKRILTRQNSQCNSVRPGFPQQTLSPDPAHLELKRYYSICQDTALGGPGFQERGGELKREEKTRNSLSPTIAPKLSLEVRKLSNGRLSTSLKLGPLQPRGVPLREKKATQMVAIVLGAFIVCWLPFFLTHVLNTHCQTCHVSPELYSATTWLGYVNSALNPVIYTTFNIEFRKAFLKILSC
SMILES,IC50 [1],IC50 (Adenosine receptor A1),IC50 (Mu-type opioid receptor),IC50 (Cytochrome P450 2A6),Ki (Cytochrome P450 2A6),IC50 (Caspase-1),IC50 ([2]; read-out: IC50),Ki [2],IC50 (D(3) dopamine receptor; read-out: IC50),Ki (D(3) dopamine receptor),IC50 ([2]; sf9),IC50 (D(3) dopamine receptor; cho)
CO[C@@H]1[C@@H](OC)[C@H](C)[C@@](O)(CC(=O)O)O[C@H]1[C@H](C)[C@H]1O[C@@]2(CC[C@@](C)([C@H]3CC[C@@](C)([C@@H]4O[C@@H]([C@H]5O[C@](C)(O)[C@H](C)C[C@@H]5C)C[C@@H]4O[C@@H]4C[C@H](OC)[C@@H](OC)[C@H](C)O4)O3)O2)C[C@H](O)[C@H]1C [MADURAMICIN ACID],Not Active,Not Active,Not Active,Not Active,Not Active,Not Active,1.61 µM,0.234 µM,0.027 µM,0.00934 µM,–,–
COc1c2occc2cc2ccc(=O)oc12 [METHOXSALEN],Not Active,Not Active,Not Active,Not Active,Not Active,Not Active,–,–,–,–,Not Active,Not Active
C[C@H]1C[C@@H]2[C@H]([C@@H](O)C[C@@]3(C)[C@H]2CC[C@]3(O)C(=O)CO)[C@@]2(C)C=CC(=O)C=C12 [METHYLPREDNISOLONE],Not Active,Not Active,Not Active,Not Active,Not Active,Not Active,–,–,–,–,Not Active,Not Active
Cc1cccc(C)c1OCC(C)N (centres undefined) [MEXILETINE],Not Active,Not Active,Not Active,Not Active,Not Active,Not Active,–,–,–,–,Not Active,Not Active
Nc1cc(N2CCCCC2)nc(N)[n+]1[O-] [MINOXIDIL],Not Active,Not Active,Not Active,Not Active,Not Active,Not Active,–,–,–,–,Not Active,Not Active
CO[C@H]1/C=C/O[C@@]2(C)Oc3c(C)c(O)c4c(O)c(c(/C=N/N5CCN(C6CCCC6)CC5)c(O)c4c3C2=O)NC(=O)/C(C)=C\C=C\[C@H](C)[C@H](O)[C@@H](C)[C@@H](O)[C@@H](C)[C@H](OC(C)=O)[C@@H]1C [RIFAPENTINE],Not Active,Not Active,Not Active,Not Active,Not Active,Not Active,–,–,–,–,Not Active,Not Active
CCCCOc1cc(CC2CNC(=O)N2)ccc1OC (centres undefined) [RO-201724],Not Active,Not Active,Not Active,Not Active,Not Active,Not Active,–,–,–,–,Not Active,Not Active
O=C(Oc1ccccc1C(=O)O)c1ccccc1O [SALSALATE],Not Active,Not Active,Not Active,Not Active,Not Active,Not Active,–,–,–,–,Not Active,Not Active
O=C(O)c1cn(-c2ccc(F)cc2)c2cc(N3CCNCC3)c(F)cc2c1=O [SARAFLOXACIN],Not Active,Not Active,Not Active,Not Active,Not Active,Not Active,–,–,–,–,Not Active,Not Active
CC(C)NCC(O)c1ccc(NS(C)(=O)=O)cc1 (centres undefined) [SOTALOL],Not Active,Not Active,Not Active,Not Active,Not Active,Not Active,–,–,–,–,Not Active,Not Active
O.O.O.O.O.O.[Cl-].[Cl-].[Sr+2] [STRONTIUM CHLORIDE HEXAHYDRATE],Not Active,Not Active,Not Active,Not Active,Not Active,Not Active,–,–,–,–,Not Active,Not Active
O=C1C(CC[S+]([O-])c2ccccc2)C(=O)N(c2ccccc2)N1c1ccccc1 (centres undefined) [SULFINPYRAZONE],Not Active,Not Active,Not Active,Not Active,Not Active,Not Active,–,–,–,–,Not Active,Not Active
NC(=O)N1C(=O)/C(=C(\O)c2cccs2)c2cc(Cl)ccc21 [TENIDAP],Not Active,Not Active,Not Active,Not Active,Not Active,Not Active,–,–,–,–,Not Active,Not Active
CN(C/C=C/C#CC(C)(C)C)Cc1cccc2ccccc12 [TERBINAFINE],Not Active,Not Active,Not Active,Not Active,Not Active,Not Active,–,–,–,–,Not Active,Not Active
CCCCNc1ccc(C(=O)OCCN(C)C)cc1 [TETRACAINE],Not Active,Not Active,Not Active,Not Active,Not Active,Not Active,–,–,–,–,Not Active,Not Active
CS(=O)(=O)c1ccc([C@@H](O)[C@@H](CO)NC(=O)C(Cl)Cl)cc1 [THIAMPHENICOL],Not Active,Not Active,Not Active,Not Active,Not Active,Not Active,–,–,–,–,Not Active,Not Active
CCN(CC)CCNC(=O)c1cc(S(C)(=O)=O)ccc1OC [TIAPRIDE],Not Active,Not Active,Not Active,Not Active,Not Active,Not Active,–,–,1.15 µM,0.39 µM,Not Active,–
Clc1ccccc1CN1CCc2sccc2C1 [TICLOPIDINE],Not Active,Not Active,Not Active,Not Active,Not Active,Not Active,1.17 µM,0.171 µM,–,–,–,Not Active
NC1CCN(c2nc3c(cc2F)c(=O)c(C(=O)O)cn3-c2ccc(F)cc2F)C1 (centres undefined) [TOSUFLOXACIN],Not Active,Not Active,Not Active,Not Active,Not Active,Not Active,–,–,–,–,Not Active,Not Active
CC(c1cc2ccccc2s1)N(O)C(N)=O (centres undefined) [ZILEUTON],Not Active,Not Active,Not Active,Not Active,Not Active,Not Active,–,–,–,–,Not Active,Not Active
